Laboratory results from ChEMBL document CHEMBL2046364, “Synthesis and evaluation of novel 3a,9a-dihydro-1-ethoxycarbonyl-1-cyclopenteno[5,4-b]benzopyran-4-ones as antifungal agents” (2012).
Values after ≈ are worked out from the molar mass of the structure shown.

How the values were obtained:
Format in all cases: functional
Candida albicans = experiment: Antifungal activity against Candida albicans MTCC 3018 by spectrophotometry based assay
Saccharomyces cerevisiae = experiment: Antifungal activity against Saccharomyces cerevisiae MTCC 1344 by spectrophotometry based assay
[1] = Antifungal activity against Epidermophyton MTCC 613 by spectrophotometry based assay
Aspergillus niger = experiment: Antifungal activity against Aspergillus niger MTCC 2642 by spectrophotometry based assay
[2] = Antifungal activity against Cryptococcus gastricus MTCC 1715 by spectrophotometry based assay; conditions: Goffeauzyma gastrica

In the case of `CCOC(=O)C1=CC[C@H]2C(=O)c3ccccc3O[C@H]12`, the MIC (Candida albicans) is reported as 25 µg/mL (≈ 96.8 µM), the MIC (Saccharomyces cerevisiae) is reported as 50 µg/mL (≈ 194 µM) and the MIC [1] is reported as over 100 µg/mL. For the same compound, the MIC (Aspergillus niger) was 25 µg/mL (≈ 96.8 µM).

For `CCOC(=O)C1=CC[C@H]2C(=O)c3cc(Cl)ccc3O[C@H]12`, the MIC (Candida albicans) was 50 µg/mL (≈ 171 µM), the MIC (Saccharomyces cerevisiae) was over 100 µg/mL and the MIC (Aspergillus niger) was 12.5 µg/mL (≈ 42.7 µM).

Compound `CCOC(=O)C1=CC[C@H]2C(=O)c3ccc(F)cc3O[C@H]12` has an MIC (Candida albicans) of 25 µg/mL (≈ 90.5 µM), an MIC (Saccharomyces cerevisiae) of 12.5 µg/mL (≈ 45.2 µM) and an MIC [2] of 100 µg/mL (≈ 362 µM). For the same compound, the MIC [1] was 50 µg/mL (≈ 181 µM) and the MIC (Aspergillus niger) was 12.5 µg/mL (≈ 45.2 µM).

In the case of `OC(Cn1cncn1)(Cn1cncn1)c1ccc(F)cc1F` [FLUCONAZOLE], the MIC (Candida albicans) is reported as 3.12 µg/mL (≈ 10.2 µM), the MIC (Saccharomyces cerevisiae) is reported as 1.5 µg/mL (≈ 4.9 µM) and the MIC [2] is reported as 6.25 µg/mL (≈ 20.4 µM). For the same compound, the MIC [1] was 6.25 µg/mL (≈ 20.4 µM) and the MIC (Aspergillus niger) was 1.5 µg/mL (≈ 4.9 µM).

Compound `CCOC(=O)C1=CC[C@H]2C(=O)c3ccc(Br)cc3O[C@H]12` has an MIC (Saccharomyces cerevisiae) of 100 µg/mL (≈ 297 µM) and an MIC (Aspergillus niger) of 100 µg/mL (≈ 297 µM).

With `CCOC(=O)C1=CC[C@H]2C(=O)c3cc(C)ccc3O[C@H]12` the MIC (Saccharomyces cerevisiae) was over 100 µg/mL, the MIC [1] was over 100 µg/mL and the MIC (Aspergillus niger) was over 100 µg/mL.

`CCOC(=O)C1=CC[C@H]2C(=O)c3cc(F)c(Cl)cc3O[C@H]12` gave an MIC (Candida albicans) of over 100 µg/mL, an MIC (Saccharomyces cerevisiae) of 25 µg/mL (≈ 80.5 µM) and an MIC (Aspergillus niger) of 100 µg/mL (≈ 322 µM).

For `CCOC(=O)C1=CC[C@H]2C(=O)c3cc(F)ccc3O[C@H]12`, the MIC (Saccharomyces cerevisiae) was 25 µg/mL (≈ 90.5 µM), the MIC [1] was over 100 µg/mL and the MIC (Aspergillus niger) was over 100 µg/mL.

Compound `CCOC(=O)C1=CC[C@H]2C(=O)c3ccc(Cl)cc3O[C@H]12` has an MIC (Candida albicans) of 50 µg/mL (≈ 171 µM), an MIC (Saccharomyces cerevisiae) of 25 µg/mL (≈ 85.4 µM) and an MIC (Aspergillus niger) of 25 µg/mL (≈ 85.4 µM).

Compound `CCOC(=O)C1=CC[C@H]2C(=O)c3cc(Br)ccc3O[C@H]12` has an MIC (Saccharomyces cerevisiae) of 50 µg/mL (≈ 148 µM) and an MIC (Aspergillus niger) of 50 µg/mL (≈ 148 µM).

Compound `CCOC(=O)C1=CC[C@H]2C(=O)c3cccc(Cl)c3O[C@H]12` has an MIC (Candida albicans) of 50 µg/mL (≈ 171 µM), an MIC (Saccharomyces cerevisiae) of 12.5 µg/mL (≈ 42.7 µM) and an MIC [2] of over 100 µg/mL. The MIC [1] was 50 µg/mL (≈ 171 µM) and the MIC (Aspergillus niger) was 12.5 µg/mL (≈ 42.7 µM).
